In patent US11104682B2, “Salts of TAM inhibitors” (Incyte Corporation, priority 2017, dated 2021):
Counter-ions that a name gives are not always drawn.

Tests used:
Axl = Axl (Homo sapiens (Human), UniProt P30530); experiment: TAM Enzymatic Assay (HTRF), phosphor-Axl; assay type: biochemical; settings: 5.1 nM phosphor-Axl, ATP
Description: Autophosphorylation of Axl was carried out by incubating the recombinant Axl protein (Life Technologies, PV4275) in buffer containing 50 mM Tris, pH7.5, 0.2 mg/ml Axl, 5 mM ATP, 20 mM MgCl2 and 2 mM DTT at room temperature for 1 hour.
(§1) The kinase assay buffer contained 50 mM HEPES, pH7.5, 10 mM MgCl2, 1 mM EGTA, 0.01% NP-40 and 2 mM DTT. 0.1 ul test compounds dissolved in DMSO were transferred from compound plates to white 384-well assay plates (Greiner […] plates). The final concentration of DMSO was 1.25%. Enzyme solutions of 5.1 nM phosphor-Axl, or 0.0625 nM c-Mer (Carna Biosciences, 08-108), or 0.366 nM Tyro3 (Life Technologies, PR7480A) were prepared in assay buffer. A 1 mM stock solution of peptide substrate Biotin-[…]-amide SEQ ID NO: 1 (Quality Controlled Biochemicals, MA) dissolved in DMSO was diluted to 1 uM in assay buffer containing 2000 uM ATP. 4 ul enzyme solution (or assay buffer for the enzyme blank) was added to the appropriate wells in each plate, and then 4 ul/well substrate solution was added to initiate the reaction. […] The plate was incubated for 1 h at room temperature, and HTRF (homogenous time resolved fluorescence) signal was measured on a PHERAstar FS plate reader (BMG labtech). Percentage of inhibition was calculated for each concentration and IC50 value was generated from curve fitting with GraphPad Prism software.

c-Mer = c-Mer (Homo sapiens (Human), UniProt Q12866); experiment: TAM Enzymatic Assay (HTRF), c-Mer; assay type: biochemical; settings: 0.0625 nM c-Mer, ATP
Description: as §1, with “reaction. The plate was protected from light and incubated at room temperature for 60 min.” for “reaction.”

Tyro3 = Tyro3 (Homo sapiens (Human), UniProt Q06418); experiment: TAM Enzymatic Assay (HTRF), Tyro3; assay type: biochemical; settings: 0.366 nM Tyro3, ATP
Description: as §1, with “reaction. The plate was protected from light and incubated at room temperature for 60 min.” for “reaction.”

[1] = Solubility of Compound I maleate salt in solvents (saturated solution, HPLC); assay type: physicochemical; settings: thermodynamic from solid; for solubility at 48 h: 25 °C, 25±1° C.; for solubility at 24 h: 50 °C, 50±1° C.
[2] = organic solvent or mixture, solvent 1,4-Dioxane
[3] = organic solvent or mixture, solvent 1-Propanol
[4] = organic solvent or mixture, solvent 2-Methoxyethanol
[5] = organic solvent or mixture, solvent Acetone
[6] = organic solvent or mixture, solvent Chloroform
[7] = organic solvent or mixture, solvent DMF
[8] = organic solvent or mixture, solvent DMSO
[9] = organic solvent or mixture, solvent Dichloromethane
[10] = organic solvent or mixture, solvent EtOAc
[11] = organic solvent or mixture, solvent EtOH
[12] = organic solvent or mixture, solvent Ethyl formate
[13] = organic solvent or mixture, solvent IPA
[14] = organic solvent or mixture, solvent IPAc
[15] = organic solvent or mixture, solvent MEK
[16] = organic solvent or mixture, solvent MIBK
[17] = organic solvent or mixture, solvent MTBE
[18] = organic solvent or mixture, solvent MeCN
[19] = organic solvent or mixture, solvent Methanol
[20] = organic solvent or mixture, solvent THF
[21] = organic solvent or mixture, solvent Toluene
[22] = organic solvent or mixture, solvent n-BuOH

Sequence of c-Mer (Q12866 21-999): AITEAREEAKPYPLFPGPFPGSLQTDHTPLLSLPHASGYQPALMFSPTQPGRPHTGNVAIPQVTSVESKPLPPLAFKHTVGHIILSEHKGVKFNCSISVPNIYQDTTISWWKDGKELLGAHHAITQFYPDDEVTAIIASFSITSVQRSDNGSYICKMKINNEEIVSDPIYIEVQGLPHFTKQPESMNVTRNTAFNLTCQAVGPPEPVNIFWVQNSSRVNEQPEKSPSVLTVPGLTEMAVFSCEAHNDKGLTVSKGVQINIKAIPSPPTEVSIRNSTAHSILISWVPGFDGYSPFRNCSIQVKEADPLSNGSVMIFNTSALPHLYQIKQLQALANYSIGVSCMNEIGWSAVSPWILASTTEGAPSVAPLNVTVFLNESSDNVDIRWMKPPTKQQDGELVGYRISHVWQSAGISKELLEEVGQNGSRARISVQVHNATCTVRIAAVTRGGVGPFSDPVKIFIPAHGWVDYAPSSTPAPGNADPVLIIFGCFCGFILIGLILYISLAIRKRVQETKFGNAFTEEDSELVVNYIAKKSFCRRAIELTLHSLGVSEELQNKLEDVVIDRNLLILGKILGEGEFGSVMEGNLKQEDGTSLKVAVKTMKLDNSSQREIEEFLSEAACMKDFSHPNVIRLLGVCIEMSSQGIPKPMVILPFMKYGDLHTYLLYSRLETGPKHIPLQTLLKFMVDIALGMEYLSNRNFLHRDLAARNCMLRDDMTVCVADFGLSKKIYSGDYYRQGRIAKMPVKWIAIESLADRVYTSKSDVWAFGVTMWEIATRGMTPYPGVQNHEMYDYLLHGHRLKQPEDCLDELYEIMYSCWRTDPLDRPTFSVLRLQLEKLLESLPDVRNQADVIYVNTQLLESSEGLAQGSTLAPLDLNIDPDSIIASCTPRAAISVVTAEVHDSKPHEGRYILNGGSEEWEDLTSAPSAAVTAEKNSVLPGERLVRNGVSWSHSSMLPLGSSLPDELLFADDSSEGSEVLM
Sequence of Tyro3 (Q06418 41-890): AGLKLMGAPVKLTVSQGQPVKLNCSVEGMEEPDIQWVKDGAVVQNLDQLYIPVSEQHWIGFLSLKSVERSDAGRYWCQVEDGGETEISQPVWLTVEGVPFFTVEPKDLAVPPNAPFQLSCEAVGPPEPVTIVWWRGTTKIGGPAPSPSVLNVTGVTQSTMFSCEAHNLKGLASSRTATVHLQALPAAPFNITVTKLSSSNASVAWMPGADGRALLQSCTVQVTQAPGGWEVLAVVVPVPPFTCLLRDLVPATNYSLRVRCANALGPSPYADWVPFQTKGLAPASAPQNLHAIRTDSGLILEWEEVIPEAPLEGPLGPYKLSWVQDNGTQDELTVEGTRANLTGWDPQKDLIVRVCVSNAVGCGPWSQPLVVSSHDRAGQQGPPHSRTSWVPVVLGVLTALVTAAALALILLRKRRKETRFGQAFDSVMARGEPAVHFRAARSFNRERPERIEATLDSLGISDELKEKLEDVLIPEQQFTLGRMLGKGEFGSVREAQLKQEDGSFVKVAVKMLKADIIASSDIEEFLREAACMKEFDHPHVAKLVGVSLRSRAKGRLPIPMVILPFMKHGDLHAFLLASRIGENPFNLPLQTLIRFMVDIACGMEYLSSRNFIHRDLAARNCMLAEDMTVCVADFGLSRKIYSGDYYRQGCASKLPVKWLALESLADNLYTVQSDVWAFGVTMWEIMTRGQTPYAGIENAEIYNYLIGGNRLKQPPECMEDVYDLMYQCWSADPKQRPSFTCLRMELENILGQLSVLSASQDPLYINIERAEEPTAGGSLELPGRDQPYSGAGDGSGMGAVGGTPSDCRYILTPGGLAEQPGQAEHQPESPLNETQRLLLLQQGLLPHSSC
Sequence of Axl (P30530 26-894): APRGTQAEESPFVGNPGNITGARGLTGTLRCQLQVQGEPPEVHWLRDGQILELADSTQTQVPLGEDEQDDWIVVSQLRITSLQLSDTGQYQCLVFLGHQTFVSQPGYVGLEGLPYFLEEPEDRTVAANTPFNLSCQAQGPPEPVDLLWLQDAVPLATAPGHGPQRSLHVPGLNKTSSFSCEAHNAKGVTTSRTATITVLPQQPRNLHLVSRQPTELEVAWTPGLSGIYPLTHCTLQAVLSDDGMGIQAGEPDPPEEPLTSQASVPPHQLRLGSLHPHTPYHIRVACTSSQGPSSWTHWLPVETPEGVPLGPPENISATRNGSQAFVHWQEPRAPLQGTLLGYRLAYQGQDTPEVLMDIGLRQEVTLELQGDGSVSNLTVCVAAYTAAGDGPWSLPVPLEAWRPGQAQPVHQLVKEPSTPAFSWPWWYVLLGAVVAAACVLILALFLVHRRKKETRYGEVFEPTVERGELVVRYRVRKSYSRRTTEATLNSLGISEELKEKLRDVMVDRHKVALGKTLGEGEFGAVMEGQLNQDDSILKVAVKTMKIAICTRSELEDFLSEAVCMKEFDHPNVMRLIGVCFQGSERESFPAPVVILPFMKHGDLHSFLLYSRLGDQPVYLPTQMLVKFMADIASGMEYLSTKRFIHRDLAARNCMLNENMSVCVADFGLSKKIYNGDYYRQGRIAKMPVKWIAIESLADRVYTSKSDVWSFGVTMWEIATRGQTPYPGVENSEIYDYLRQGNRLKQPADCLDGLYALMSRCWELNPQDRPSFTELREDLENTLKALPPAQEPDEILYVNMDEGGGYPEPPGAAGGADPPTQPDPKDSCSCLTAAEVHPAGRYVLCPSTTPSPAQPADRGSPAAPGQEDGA

For CC(C)C(=O)N1CCC(c2cc(-c3ccc(NC(=O)c4cn(C(C)C)c(=O)n(-c5ccccc5)c4=O)cc3)c3c(N)ncnn23)CC1 [Compound II hemi-sulfuric acid salt, N-(4-(4-Amino-7-(1-isobutyrylpiperidin-4-yl)pyrrolo[1,2-f][1,2,4]triazin-5-yl)phenyl)-1-isopropyl-2,4-dioxo-3-phenyl-1,2,3,4-tetrahydropyrimidine-5-carboxamide hemisulfate], the IC50 (Axl) was ≤ 5 nM, the IC50 (c-Mer) was ≤ 5 nM and the IC50 (Tyro3) was 10 to 100 nM.

In the case of CC(C)C(=O)N1CCC(c2cc(-c3ccc(NC(=O)c4cn(C(C)C)c(=O)n(-c5ccccn5)c4=O)cc3)c3c(N)ncnn23)CC1 [Compound I maleate salt, N-(4-(4-Amino-7-(1-isobutyrylpiperidin-4-yl)pyrrolo[1,2-f][1,2,4]triazin-5-yl)phenyl)-1-isopropyl-2,4-dioxo-3-(pyridin-2-yl)-1,2,3,4-tetrahydropyrimidine-5-carboxamide maleate], the solubility at 48 h [1, 2] is reported as 2310 µg/mL, the solubility at 48 h [1, 3] is reported as 440 µg/mL and the solubility at 48 h ([1]; organic solvent or mixture, solvent 2% DCM/98% MeOH (V/V)) is reported as 1460 µg/mL. It also gave a solubility at 48 h [1, 4] of 5960 µg/mL, a solubility at 48 h ([1]; organic solvent or mixture, solvent 10% DCM/90% MeOH (V/V)) of 1880 µg/mL and a solubility at 48 h [1, 5] of 1680 µg/mL. For the same compound, the solubility at 48 h [1, 6] was 6120 µg/mL, the solubility at 48 h ([1]; organic solvent or mixture, solvent DCM/MeOH(2/1)) was > 50000 µg/mL and the solubility at 48 h [1, 7] was > 50000 µg/mL. For the same compound, the solubility at 48 h [1, 8] was > 50000 µg/mL, the solubility at 48 h [1, 9] was 24400 µg/mL and the solubility at 48 h [1, 10] was 180 µg/mL. It also gave a solubility at 48 h [1, 11] of 650 µg/mL, a solubility at 48 h [1, 12] of 680 µg/mL and a solubility at 48 h [1, 13] of 160 µg/mL. For the same compound, the solubility at 48 h [1, 14] was 270 µg/mL, the solubility at 48 h [1, 15] was 280 µg/mL and the solubility at 48 h [1, 16] was 430 µg/mL. It also gave a solubility at 48 h [1, 17] of 80 µg/mL, a solubility at 48 h [1, 18] of 280 µg/mL and a solubility at 48 h [1, 19] of 1640 µg/mL. For the same compound, the solubility at 48 h [1, 20] was 920 µg/mL, the solubility at 48 h [1, 21] was 180 µg/mL and the solubility at 48 h [1, 22] was 210 µg/mL. For the same compound, the solubility at 48 h ([1]; solvent Water) was 20 µg/mL, the solubility at 24 h [1, 2] was 4620 µg/mL and the solubility at 24 h [1, 3] was 1310 µg/mL. It also gave a solubility at 24 h [1, 4] of 14800 µg/mL, a solubility at 24 h [1, 5] of 3050 µg/mL and a solubility at 24 h [1, 6] of 13700 µg/mL. The solubility at 24 h [1, 7] was > 50000 µg/mL, the solubility at 24 h [1, 8] was > 50000 µg/mL and the solubility at 24 h [1, 9] was 33700 µg/mL. The solubility at 24 h [1, 10] was 400 µg/mL, the solubility at 24 h [1, 11] was 1930 µg/mL and the solubility at 24 h [1, 12] was 990 µg/mL. The solubility at 24 h [1, 13] was 680 µg/mL, the solubility at 24 h [1, 14] was 330 µg/mL and the solubility at 24 h [1, 15] was 2190 µg/mL. The solubility at 24 h [1, 16] was 740 µg/mL, the solubility at 24 h [1, 17] was 100 µg/mL and the solubility at 24 h [1, 18] was 680 µg/mL. The solubility at 24 h [1, 19] was 3090 µg/mL, the solubility at 24 h [1, 20] was 1630 µg/mL and the solubility at 24 h [1, 21] was 200 µg/mL. For the same compound, the solubility at 24 h [1, 22] was 1100 µg/mL, the solubility at 24 h ([1]; solvent Water) was 40 µg/mL and the IC50 (Axl) was ≤ 5 nM. For the same compound, the IC50 (c-Mer) was ≤ 5 nM and the IC50 (Tyro3) was 10 to 100 nM.
